Experimental findings from US9884832B2 (priority 2011, dated 2018) are described below.

Sequence of AM2 S31 (wild-type serine at position 31 in the M2 protein), influenza virus A/Udorn/72 (P0DOF5 whole entry, looked up): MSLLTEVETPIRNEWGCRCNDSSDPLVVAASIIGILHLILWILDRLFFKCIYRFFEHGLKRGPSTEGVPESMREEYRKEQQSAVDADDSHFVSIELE

The first test has as its target AM2 S31 (wild-type serine at position 31 in the M2 protein), influenza virus A/Udorn/72 (Influenza A virus, UniProt P0DOF5). As to the kind of experiment: cell-based. Conditions: 100 uM; Xenopus oocytes; activity range class; read-out: S31 OOcyte Inhibition at 100 uM (%).
As usually defined, the inhibition is the relative decrease from the control value, in per cent. In the case of `Cc1ccc(-c2cc(CNC34CC5CC(CC(C5)C3)C4)no2)cc1` [Example 120a, N-((5-(p-tolyl)isoxazol-3-yl)methyl)adamantan-1-amine], the inhibition at 100 µM lay in the range of 0 to 30%. For the molecule `COc1ccc(-c2ccc(CNC34CC5CC(CC(C5)C3)C4)s2)cc1` [Example 113a, N-((5-(4-methoxyphenyl)thiophen-2-yl)methyl)adamantan-1-amine], the inhibition at 100 µM is 0 to 30%. With `c1cc(C2CC2)sc1CNC12CC3CC(CC(C3)C1)C2` [Example 108a, N-((5-cyclopropylthiophen-2-yl)methyl)adamantan-1-amine], the inhibition at 100 µM lay within 0 to 30%. On the same count and under the same terms, then `CC(C)(C)c1ccc(CNC23CC4CC(CC(C4)C2)C3)cc1` [Example 7a, N-(4-(tert-Butyl)benzyl)adamantan-1-amine methanesulfonate], with 0 to 30%. Regarding `COc1ccc2nc(CN(Cc3nc4ccc(OC)cc4[nH]3)C34CC5CC(CC(C5)C3)C4)[nH]c2c1` [Example 201a, Adamantan-1-yl-bis-(6-methoxy-1H-benzoimidazol-2-ylmethyl)-amine], the inhibition at 100 µM lay within 0 to 30%. Turning to `Cn1c(CNC23CC4CC(CC(C4)C2)C3)cc2sccc21` [Example 172a, Adamantan-1-yl-(4-methyl-4H-thieno[3,2-b]pyrrol-5-ylmethyl)-amine], the inhibition at 100 µM fell in the range of 0 to 30%. With `c1ccc(-c2nnc(CNC34CC5CC(CC(C5)C3)C4)o2)cc1` [Example 115a, N-((5-phenyl-1,3,4-oxadiazol-2-yl)methyl)adamantan-1-amine], the inhibition at 100 µM fell in the range of 0 to 30%. On the same count and under the same terms, then `C(=C\c1ccccc1)/CNC12CC3CC(CC(C3)C1)C2` [Example 199a, N-cinnamyladamantan-1-amine], with 0 to 30%; and `c1coc(-c2ncc(CNC34CC5CC(CC(C5)C3)C4)cn2)c1` [Example 62a, N-((2-(furan-2-yl)pyrimidin-5-yl)methyl)adamantan-1-amine], with 0 to 30%. On to `c1nc(CNC23CC4CC(CC(C4)C2)C3)no1` [Example 73a, Adamantan-1-yl-[1,2,4]oxadiazol-3-ylmethyl-amine], for which the inhibition at 100 µM was in the range of 31 to 95%.

Still in this test, the particulars now being: Table 1; 100 uM; Xenopus oocytes, pH 5.5, -20 mV; read-out: S31 OOcyte Inhibition at 100 uM (%).
Consider `Oc1ccc(CNC2C3CC4CC(C3)CC2C4)cc1O` (centres unmarked) [Example 101, 4-(Adamantan-2-ylaminomethyl)-benzene-1,2-diol], for which the inhibition at 100 µM was 31 to 95%. In the case of `c1cc2[nH]c(CNC34CC5CC(CC(C5)C3)C4)cc2s1` [Example 80, Adamantan-1-yl-(4H-thieno[3,2-b]pyrrol-5-ylmethyl)-amine], the inhibition at 100 µM was in the range of 31 to 95%. Consider `Fc1ccc(CNC23CC4CC(CC(C4)C2)C3)c(F)c1` [Example 54, Adamantan-1-yl-(2,4-difluoro-benzyl)-amine], for which the inhibition at 100 µM lay in the range of 31 to 95%.

Turning to `c1ccc2sc(CNC34CC5CC(CC(C5)C3)C4)cc2c1` [Example 88, Adamantan-1-yl-benzo[b]thiophen-2-ylmethyl-amine], the inhibition at 100 µM was 0 to 30%. On to `Oc1ccc(CNC23CC4CC(CC(C4)C2)C3)cc1F` [Example 48, 4-(Adamantan-1-ylaminomethyl)-2-fluoro-phenol], for which the inhibition at 100 µM lay in the range of 31 to 95%. As for `Oc1ccc(CNC23CC4CCC(CC(C4)C2)C3)c(O)c1` [Example 110, 4-(Tricyclo[4.3.1.13,8]undec-1-ylaminomethyl)-benzene-1,3-diol], the inhibition at 100 µM was 31 to 95%. For the molecule `Oc1ccc(/C=N/C23CC4CC(CC(C4)C2)C3)cc1` [Example 6], the inhibition at 100 µM lay within 31 to 95%. On the same count and under the same terms, the figure for `COc1ccc(CN(C)C23CC4CC(CC(C4)C2)C3)cc1` [Example 32, Adamantan-1-yl-(4-methoxy-benzyl)-methyl-amine] is 31 to 95%.

Staying with this test, now noted: Table 3; 100 uM; Xenopus oocytes, pH 5.5, -20 mV; read-out: S31 OOcyte Inhibition at 100 uM (%).
Consider `c1csc(-c2nc(CNC34CC5CC(CC(C5)C3)C4)cs2)c1` [Example 11b, N-((2-(thiophen-2-yl)thiazol-4-yl)methyl)adamantan-1-amine], for which the inhibition at 100 µM lay within 0 to 30%. For `Cc1nnc(CNC23CC4CC(CC(C4)C2)C3)o1` [Example 17b, N-((5-methyl-1,3,4-oxadiazol-2-yl)methyl)adamantan-1-amine], the inhibition at 100 µM was 0 to 30%.
